Columns and labels:
Test in all cases: Human Liver Microsomal CYP Inhibition Test
Cytochrome P450 2C9 = Cytochrome P450 2C9 (Homo sapiens, UniProt P11712)
Experimental: (§1) 3.5.1 the working solution preparation of the compound to be tested and the positive control (100×);3.5.2 Taking the liver microsomes from the −80° C. cryogenic freezer and melting on ice;3.5.3 Adding 20 μL of substrate solution to the appropriate wells and 20 μL of potassium phosphate buffer to the blank wells;3.5.4 Adding 2 μL of different concentrations of target compounds (final concentrations from 0.05 μM to 50 μM, 7 concentrations in total) or standard inhibitors to each well, with 2 μL of methanol solution in the non-inhibitor and blank wells;3.5.5 Adding 1.012 mL of liver microsomes to 78.988 mL of potassium phosphate buffer, then adding 158 μL of liver microsomes solution to all wells; preheating the well plate for 10 minutes in a 37° C. water bath;3.5.6 Weighing 129.1 mg NADPH (purchased from SyncoZymes Co. Ltd.) and adding to 15.0 mL of 33 Mm MgCl2 solution to give a 10 mM concentration, adding 20 μL to each well;3.5.7 Mixing and incubating the well plate in a 37° C. water bath for 10 minutes, then adding 400 μL of cold termination solution at the appropriate time point;3.5.8 Centrifuging the sample at 4000 rpm for 20 minutes to precipitate the protein. Transferring 200 μL of supernatant to 100 μL of HPLC water and shaking for 10 minutes. The samples were analyzed by LC/MS/MS.

Cytochrome P450 2C19 = Cytochrome P450 2C19 (Homo sapiens, UniProt P33261)
Cytochrome P450 2C19, sequence (P33261 whole entry): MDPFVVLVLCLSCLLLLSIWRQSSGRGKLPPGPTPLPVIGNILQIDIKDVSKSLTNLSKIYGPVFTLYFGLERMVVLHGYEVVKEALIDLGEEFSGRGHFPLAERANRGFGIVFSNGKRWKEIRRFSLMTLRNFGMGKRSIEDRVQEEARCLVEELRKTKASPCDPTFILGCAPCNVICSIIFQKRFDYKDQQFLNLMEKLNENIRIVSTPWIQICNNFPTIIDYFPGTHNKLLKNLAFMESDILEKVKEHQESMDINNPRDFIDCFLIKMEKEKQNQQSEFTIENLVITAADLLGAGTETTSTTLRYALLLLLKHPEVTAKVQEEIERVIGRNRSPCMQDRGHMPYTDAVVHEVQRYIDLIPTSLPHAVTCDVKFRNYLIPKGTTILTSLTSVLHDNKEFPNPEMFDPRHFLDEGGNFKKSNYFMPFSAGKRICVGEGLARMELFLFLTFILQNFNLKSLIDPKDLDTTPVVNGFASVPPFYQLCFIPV
Experimental: as §1

Cytochrome P450 2D6 = Cytochrome P450 2D6 (Homo sapiens, UniProt P10635)
Cytochrome P450 2D6, sequence (P10635 whole entry): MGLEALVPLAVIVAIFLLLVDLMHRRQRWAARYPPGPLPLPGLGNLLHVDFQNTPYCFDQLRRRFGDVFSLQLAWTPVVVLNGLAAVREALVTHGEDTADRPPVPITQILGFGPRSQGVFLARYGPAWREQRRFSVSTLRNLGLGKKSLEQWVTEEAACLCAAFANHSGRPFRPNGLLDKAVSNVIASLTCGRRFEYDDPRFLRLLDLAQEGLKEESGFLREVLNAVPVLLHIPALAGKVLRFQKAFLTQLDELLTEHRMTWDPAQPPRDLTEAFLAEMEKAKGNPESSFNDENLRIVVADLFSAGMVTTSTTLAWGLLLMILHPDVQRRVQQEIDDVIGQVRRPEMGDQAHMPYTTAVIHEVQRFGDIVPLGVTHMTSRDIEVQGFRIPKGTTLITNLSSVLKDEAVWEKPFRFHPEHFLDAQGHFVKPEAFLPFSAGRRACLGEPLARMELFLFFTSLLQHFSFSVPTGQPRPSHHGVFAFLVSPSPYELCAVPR
Experimental: as §1

Cytochrome P450 1A2 = molecular target: T1, Cytochrome P450 1A2 (Homo sapiens, UniProt P05177)
T1 sequence (P05177 whole entry): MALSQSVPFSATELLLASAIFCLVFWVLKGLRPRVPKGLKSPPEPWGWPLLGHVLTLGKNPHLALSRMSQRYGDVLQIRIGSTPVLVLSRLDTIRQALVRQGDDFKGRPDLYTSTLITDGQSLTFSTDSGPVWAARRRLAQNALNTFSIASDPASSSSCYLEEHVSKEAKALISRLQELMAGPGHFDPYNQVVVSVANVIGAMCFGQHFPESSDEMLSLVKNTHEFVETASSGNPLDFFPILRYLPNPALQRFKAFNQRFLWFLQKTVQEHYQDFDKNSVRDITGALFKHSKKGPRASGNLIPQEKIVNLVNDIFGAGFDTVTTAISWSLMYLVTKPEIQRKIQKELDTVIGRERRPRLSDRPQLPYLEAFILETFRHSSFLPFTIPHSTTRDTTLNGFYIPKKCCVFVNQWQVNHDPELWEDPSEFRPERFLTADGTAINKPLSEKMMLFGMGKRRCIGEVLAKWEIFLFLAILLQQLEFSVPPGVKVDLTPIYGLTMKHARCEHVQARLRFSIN
Experimental: as §1

Cytochrome P450 2C9, sequence (P11712 whole entry): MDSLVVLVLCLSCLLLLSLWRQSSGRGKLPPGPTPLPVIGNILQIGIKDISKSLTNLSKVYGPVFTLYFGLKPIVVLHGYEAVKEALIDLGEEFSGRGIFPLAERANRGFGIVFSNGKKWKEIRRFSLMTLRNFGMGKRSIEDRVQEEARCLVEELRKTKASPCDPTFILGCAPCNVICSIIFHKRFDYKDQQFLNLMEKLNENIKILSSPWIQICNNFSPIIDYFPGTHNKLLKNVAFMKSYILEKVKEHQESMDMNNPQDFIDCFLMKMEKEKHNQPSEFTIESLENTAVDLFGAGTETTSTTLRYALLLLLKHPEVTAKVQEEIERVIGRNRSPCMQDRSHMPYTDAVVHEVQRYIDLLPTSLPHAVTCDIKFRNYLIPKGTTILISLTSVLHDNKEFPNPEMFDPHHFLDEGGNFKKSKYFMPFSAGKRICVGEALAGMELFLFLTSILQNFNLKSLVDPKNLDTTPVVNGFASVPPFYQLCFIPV

Structure (SMILES): COc1c([C@H]2[C@H](C(=O)Nc3ccc[n+]([O-])c3)C[C@@](C)(C(F)(F)F)[C@H]2C)ccc(F)c1F [US20250296922, Compound 7]
- IC50 (Cytochrome P450 2C9): > 50 µM
- IC50 (Cytochrome P450 2C19): 2130 nM
- IC50 (Cytochrome P450 2D6): > 50 µM
- IC50 (Cytochrome P450 1A2): > 50 µM
